Square brackets hold non-standard residues; d marks the D form. Peptide text beside a SMILES is read from it. PEG24 = NCCOCCOCCOCCOCCOCCOCCOCCOCCOCCOCCOCCOCCOCCOCCOCCOCCOCCOCCOCCOCCOCCOCCOCCOCCC(=O)O; Sar = CNCC(=O)O
What was measured:
[1] = system: complement activation in factor B-depleted human sera; format: biochemical
Experimental: Peptides were diluted to 0.77 mM in factor B-depleted human sera (Complement Technologies, Inc.) and incubated for 1 hour at 37° C. These peptides were then diluted with GVBS^++ to equal 2.5/s serum, of which 0.25 ml was combined with 0.4 ml of GVBS^++ and 0.1 ml of sensitized sheep red blood cells (RBCs) and again incubated for 1 hour at 37° C. The procedure was stopped by the addition of 4.0 ml of GVBS^−−, centrifuged for 5 minutes at 1,620×g, and the absorbance of the supernatants was read at 412 nm in a spectrophotometer. The percent lysis of each sample was standardized to that of the serum only control.
The final concentration of peptide in factor B-depleted serum was 0.77 mM. Each peptide was evaluated in triplicate and the mean values are reported. […] In the hemolytic assay, soluble peptides are standardized to water and insoluble peptides standardized to DMSO.
Polar Assortant peptides were serially diluted in undiluted factor B-depleted human sera (Complement Technologies, Inc.) and incubated for 1 hour at 37° C. Water, GVBS^++ and DMSO were included as controls. These peptides were then diluted with GVBS^++ to equal 2.5/s serum, of which 0.25 ml was combined with 0.4 ml of GVBS^++ and 0.1 ml of sensitized sheep red blood cells (RBCs) and again incubated for 1 hour at 37° C. The procedure was stopped by the addition of 4.0 ml of GVBS^−−, centrifuged for 5 minutes at 1,620×g, and the absorbance of the supernatants was read at 412 nm in a spectrophotometer. The percent lysis of each sample was standardized to that of the serum only control.
The final concentration of peptide in factor B-depleted serum was 0.77 mM. […] In the hemolytic assay, soluble peptides were standardized to water and insoluble peptides standardized to DMSO.
The final concentration of peptide in factor B-depleted serum was 0.77 mM. […] In the hemolytic assay, soluble peptides are standardized to water and insoluble peptides standardized to DMSO.

Solubility in water = format: physicochemical
[2] = Table 7, PEGylated and sarcosine/alanine substitution peptides
[3] = Table 5, sarcosine substitution peptides

Structure (SMILES) | Hemolysis (%) [1] [%] | Solubility in water (Solubility in water; [2]) | Solubility in water (Solubility in water; [3])
CC[C@H](C)[C@H](N)C(=O)N[C@@H](C)C(=O)N[C@@H](CC(C)C)C(=O)N[C@H](C(=O)N[C@@H](CC(C)C)C(=O)N[C@@H](CCC(=O)O)C(=O)N(C)CC(=O)N[C@H](C(=O)N(C)CC(=O)N[C@@H](CS)C(=O)N[C@@H](CCC(N)=O)C(=O)N[C@@H](CCC(=O)O)C(=O)N[C@@H](CCCNC(=N)N)C(=O)N[C@@H](C)C(=O)N[C@@H](C)C(=O)O)[C@@H](C)CC)[C@@H](C)CC [PA-P7SarC9Sar, IALILE(Sar)I(Sar)CQERAA] (H-IALILE[Sar]I[Sar]CQERAA-OH) | 82.72 | Yes | –
CC[C@H](C)[C@H](N)C(=O)N[C@@H](C)C(=O)N[C@@H](CC(C)C)C(=O)N[C@H](C(=O)N[C@@H](CC(C)C)C(=O)N[C@@H](CCC(=O)O)C(=O)N1CCC[C@H]1C(=O)N[C@H](C(=O)N[C@@H](CS)C(=O)N[C@@H](CS)C(=O)N[C@@H](CCC(N)=O)C(=O)N[C@@H](CCC(=O)O)C(=O)N(C)CC(=O)N[C@@H](C)C(=O)N[C@@H](C)C(=O)NCCOCCOCCOCCOCCOCCOCCOCCOCCOCCOCCOCCOCCOCCOCCOCCOCCOCCOCCOCCOCCOCCOCCOCCOCCC(=O)O)[C@@H](C)CC)[C@@H](C)CC [PA-R13Sar-dPEG24] | 4.26 | Yes | –
CC[C@H](C)[C@H](N)C(=O)N[C@@H](C)C(=O)N[C@@H](CC(C)C)C(=O)N[C@H](C(=O)N[C@@H](CC(C)C)C(=O)N[C@@H](CCC(=O)O)C(=O)N1CCC[C@H]1C(=O)N[C@H](C(=O)N[C@@H](CS)C(=O)N[C@@H](CS)C(=O)N[C@@H](CCC(N)=O)C(=O)N[C@@H](CCC(=O)O)C(=O)N[C@@H](CCCNC(=N)N)C(=O)N(C)CC(=O)N[C@@H](C)C(=O)NCCOCCOCCOCCOCCOCCOCCOCCOCCOCCOCCOCCOCCOCCOCCOCCOCCOCCOCCOCCOCCOCCOCCOCCOCCC(=O)O)[C@@H](C)CC)[C@@H](C)CC [PA-A14Sar-dPEG24] | 3.68 | Yes | –
CC[C@H](C)[C@H](N)C(=O)N[C@@H](C)C(=O)N[C@@H](CC(C)C)C(=O)N[C@H](C(=O)N[C@@H](CC(C)C)C(=O)N[C@@H](CCC(=O)O)C(=O)N1CCC[C@H]1C(=O)N[C@H](C(=O)N(C)CC(=O)N[C@@H](CS)C(=O)N[C@@H](CCC(N)=O)C(=O)N[C@@H](CCC(=O)O)C(=O)N(C)CC(=O)N[C@@H](C)C(=O)N[C@@H](C)C(=O)O)[C@@H](C)CC)[C@@H](C)CC [Peptide R13SarC9Sar] (H-IALILEPI[Sar]CQE[Sar]AA-OH) | 84.81 | No | –
CC[C@H](C)[C@H](N)C(=O)N[C@@H](C)C(=O)N[C@@H](CC(C)C)C(=O)N[C@H](C(=O)N[C@@H](CC(C)C)C(=O)N[C@@H](CCC(=O)O)C(=O)N1CCC[C@H]1C(=O)N[C@H](C(=O)N(C)CC(=O)N[C@@H](C)C(=O)N[C@@H](CCC(N)=O)C(=O)N[C@@H](CCC(=O)O)C(=O)N[C@@H](CCCNC(=N)N)C(=O)N[C@@H](C)C(=O)N[C@@H](C)C(=O)O)[C@@H](C)CC)[C@@H](C)CC [PA-C9SarC10A] (H-IALILEPI[Sar]AQERAA-OH) | 99.37 | Yes | –
CC[C@H](C)[C@H](N)C(=O)N[C@@H](C)C(=O)N[C@@H](CC(C)C)C(=O)N[C@H](C(=O)N[C@@H](CC(C)C)C(=O)N[C@@H](C)C(=O)N(C)CC(=O)N[C@H](C(=O)N[C@@H](CS)C(=O)N[C@@H](CS)C(=O)N[C@@H](CCC(N)=O)C(=O)N[C@@H](C)C(=O)N[C@@H](CCCNC(=N)N)C(=O)N[C@@H](C)C(=O)N[C@@H](C)C(=O)O)[C@@H](C)CC)[C@@H](C)CC [Peptide E6AE12AP7Sar] (H-IALILA[Sar]ICCQARAA-OH; N-terminus and C-terminus assumed) | 4.60 | Yes | –
CC[C@H](C)[C@H](N)C(=O)N[C@@H](C)C(=O)N[C@@H](CC(C)C)C(=O)N[C@H](C(=O)N[C@@H](CC(C)C)C(=O)N[C@@H](CCC(=O)O)C(=O)N1CCC[C@H]1C(=O)N[C@H](C(=O)N[C@@H](CS)C(=O)N(C)CC(=O)N[C@@H](CCC(N)=O)C(=O)N[C@@H](CCC(=O)O)C(=O)N[C@@H](CCCNC(=N)N)C(=O)N[C@@H](C)C(=O)N[C@@H](C)C(=O)O)[C@@H](C)CC)[C@@H](C)CC [PA-C10Sar] | 56.18 | – | No
CC[C@H](C)[C@H](N)C(=O)N[C@@H](C)C(=O)N[C@@H](CC(C)C)C(=O)N[C@H](C(=O)N[C@@H](CC(C)C)C(=O)N(C)CC(=O)N1CCC[C@H]1C(=O)N[C@H](C(=O)N(C)CC(=O)N[C@@H](CS)C(=O)N[C@@H](CCC(N)=O)C(=O)N[C@@H](CCC(=O)O)C(=O)N[C@@H](CCCNC(=N)N)C(=O)N[C@@H](C)C(=O)N[C@@H](C)C(=O)O)[C@@H](C)CC)[C@@H](C)CC [Peptide E6SarC9Sar, IALIL(Sar)PI(Sar)CQERAA] (H-IALIL[Sar]PI[Sar]CQERAA-OH) | 6.21 | Yes | –
CC[C@H](C)[C@H](N)C(=O)N[C@@H](C)C(=O)N[C@@H](CC(C)C)C(=O)N[C@H](C(=O)N[C@@H](CC(C)C)C(=O)N[C@@H](C)C(=O)N1CCC[C@H]1C(=O)N[C@H](C(=O)N[C@@H](CS)C(=O)N[C@@H](CS)C(=O)N[C@@H](CCC(N)=O)C(=O)N[C@@H](C)C(=O)N[C@@H](CCCNC(=N)N)C(=O)N[C@@H](C)C(=O)N[C@@H](C)C(=O)NCCOCCOCCOCCOCCOCCOCCOCCOCCOCCOCCOCCOCCOCCOCCOCCOCCOCCOCCOCCOCCOCCOCCOCCOCCC(=O)O)[C@@H](C)CC)[C@@H](C)CC [E6AE12A-dPEG24] (H-IALILAPICCQARAA[PEG24]-OH; N-terminus assumed) | 4.95 | Yes | –
CC[C@H](C)[C@H](N)C(=O)N[C@@H](C)C(=O)N[C@@H](CC(C)C)C(=O)N[C@H](C(=O)N[C@@H](CC(C)C)C(=O)N[C@@H](CCC(=O)O)C(=O)N1CCC[C@H]1C(=O)N[C@H](C(=O)N(C)CC(=O)N[C@@H](CS)C(=O)N(C)CC(=O)N[C@@H](CCC(=O)O)C(=O)N[C@@H](CCCNC(=N)N)C(=O)N[C@@H](C)C(=O)N[C@@H](C)C(=O)O)[C@@H](C)CC)[C@@H](C)CC [Peptide Q11SarC9Sar] (H-IALILEPI[Sar]C[Sar]ERAA-OH) | 15.42 | Yes | –
CC[C@H](C)[C@H](N)C(=O)N[C@@H](C)C(=O)N[C@@H](CC(C)C)C(=O)N[C@H](C(=O)N[C@@H](CC(C)C)C(=O)N[C@@H](CCC(=O)O)C(=O)N1CCC[C@H]1C(=O)N[C@H](C(=O)N(C)CC(=O)N[C@@H](CCC(N)=O)C(=O)N[C@@H](CCC(=O)O)C(=O)N[C@@H](CCCNC(=N)N)C(=O)N[C@@H](C)C(=O)N[C@@H](C)C(=O)O)[C@@H](C)CC)[C@@H](C)CC [PA-C9SarD10] (H-IALILEPI[Sar]QERAA-OH) | 100.52 | Yes | –
CC[C@H](C)[C@H](N)C(=O)N[C@@H](C)C(=O)N[C@@H](CC(C)C)C(=O)N[C@H](C(=O)N[C@@H](CC(C)C)C(=O)N[C@@H](CCC(=O)O)C(=O)N1CCC[C@H]1C(=O)N[C@H](C(=O)N[C@@H](CS)C(=O)N[C@@H](CS)C(=O)N(C)CC(=O)N[C@@H](CCC(=O)O)C(=O)N[C@@H](CCCNC(=N)N)C(=O)N[C@@H](C)C(=O)N[C@@H](C)C(=O)NCCOCCOCCOCCOCCOCCOCCOCCOCCOCCOCCOCCOCCOCCOCCOCCOCCOCCOCCOCCOCCOCCOCCOCCOCCC(=O)O)[C@@H](C)CC)[C@@H](C)CC [PA-Q11Sar-dPEG24] | 12.04 | Yes | –
CC[C@H](C)[C@H](N)C(=O)N[C@@H](C)C(=O)N[C@@H](CC(C)C)C(=O)N(C)CC(=O)N[C@@H](CC(C)C)C(=O)N[C@@H](CCC(=O)O)C(=O)N1CCC[C@H]1C(=O)N[C@H](C(=O)N[C@@H](CS)C(=O)N[C@@H](CS)C(=O)N[C@@H](CCC(N)=O)C(=O)N[C@@H](CCC(=O)O)C(=O)N[C@@H](CCCNC(=N)N)C(=O)N[C@@H](C)C(=O)N[C@@H](C)C(=O)O)[C@@H](C)CC [PA-I4Sar] (H-IAL[Sar]LEPICCQERAA-OH; N-terminus and C-terminus assumed) | 93.19 | – | Yes

— patent US10005818B2, “Derivative peptide compounds and methods of use” (REALTA HOLDINGS, LLC, priority 2010, dated 2018)
